Data published in US11690822B2, “Method for treating non-compaction cardiomyopathy” (EXCELSIOR PHARMATECH LABS, priority 2018, dated 2023).

Columns and labels:
[1] = test system: LVNC cardiomyocytes; test: Cell shortening (Ionoptix) and inotropic response to isoprenaline in LVNC-hiPSC-CMs; assay type: cell-based, human; conditions: 5 μM; isoprenaline 0.03, 0.1, 1 μM; treatment day 30 through day 70; FIG. 3B
Description: (§1) Human induced pluripotent stem cell (hiPSC) lines respectively derived from patients with left ventricular non-compaction cardiomyopathy (LVNC) and a normal healthy […] were reprogrammed through two approaches; one line of each patient was reprogrammed from skin cells by lentivirus carrying four Yamanaka factors (Klf4, Myc, Sox2, Oct4; conducted by Dr. Hong-Nerng Ho at NTU) and the other line was reprogrammed from peripheral blood monocytes (PBMC) by Sendai virus carrying the four Yamanaka factors (conducted by Dr. Joseph C. Wu at Stanford University). Patients consented to collect patients' tissues/blood cells for genetic examination, reprogramming to hiPSC, and pharmacological studies. Drug effect was validated via testing the same drug at the same dose in human cardiomyocytes derived from the two lines of the same patient with at least three independent repeats in each line. Cell shortening was measured by the Ionoptix system (Westwood, Mass., USA), and mitochondrial function was assessed by an Agilent seahorse analyzer (Seahorse Bioscience, MA, USA).

[2] = test system: LVNC cardiomyocytes; test: Seahorse assay of mitochondrial function (OCR, ECAR) in LVNC-hiPSC-derived cardiomyocytes; assay type: cell-based, human; conditions: 5 μM, iH LVNC cardiomyocytes, FIG. 2C
Description: as §1, with “Drug effect was validated via testing the same drug at the same dose in human cardiomyocytes derived from the two lines of the same patient with at least three independent repeats in each line.” left out
Seahorse assay was performed on day 70 to measure mitochondrial OCR (Oxygen Consumption Rate) and ECAR (Extracellular Acidification Rate) under the conditions in the sequential adding of the XF mito stress test kit with the indicated reagents by the arrows. […] The relationship of OCR vs. ECAR was measured under the conditions of basal (before oligomycin) and maximum respiratory capacity (after FCCP).

[3] = test system: LVNC cardiomyocytes; test: Proteomic analysis (LC-MS/MS) of LVNC cardiomyocytes treated with or without simvastatin; assay type: cell-based, human
Method: The samples were further digested by trypsin. After being desalted and dried, LC-MS/MS analysis was performed by the LTQ-Orbitrap Velos mass spectrometer system. The peptide and protein group IDs were obtained by MASCOT database searching with precursor mass accuracy of 7 ppm and MS/MS accuracy of 0.5 Da. The large mass-spectrometric raw data were further analyzed by the MaxQuant software based on the Uniprot human database with a label-free quantification method and followed by the statistical analysis using the Perseus software.

[4] = test system: Tnnt2^R154W/+::Mypn^S1291T/+ LVNC mice; test: Echocardiography of cardiac function (LVEF) in LVNC mice; assay type: in vivo, mouse
Method: Tnnt2(R154W)- and Mypn(S1291T)-knockin mice on C57BL/6j background were generated by Gene Knockout Mouse Core Laboratory of National Taiwan University Center of Genomic Medicine. Genetically heterozygous LVNC mice (Tnnt2(R154W)^+/−:: Mypn(S1291T)^+/−) were obtained from crossing Tnnt2(R154W)^+/− and Mypn(S1291T)^+/− mice. PCR and DNA sequencing were performed to confirm the genotype. All animal procedures and protocols were approved by AAALAC-accredited facility.
The cardiac motion function of LVNC mice was measured through echocardiography in M-mode by the VisualSonic vevo 2100 imaging system (VisualSonic Inc., Toronto, Canada). Cardiac glucose metabolic rate of LVNC mice was measured by dynamic small animal positron emission tomography (PET) observation under anesthetization by 2% isoflurane inhalation. ^18F-FDG (fluorodeoxyglucose 18F) uptake in LVNC mouse heart was measured for the analysis of cardiac glucose metabolic rate (MRGlu) by dynamic small animal positron emission tomography (PET) to examine the changes in cardiometabolism.
Repeated measures two-way ANOVA with multiple comparisons by the Tukey test was used to distinguish the difference in cell shortening velocity between DMSO- and simvastatin-groups on day 50 and day 70 in LVNC-hiPSC-CMs of iFa and iH. […]

`CC(C)c1c(C(=O)Nc2ccccc2)c(-c2ccccc2)c(-c2ccc(F)cc2)n1CC[C@@H](O)C[C@@H](O)CC(=O)O` [atorvastatin] was tested, and the “cardiac contraction and positive inotropic response to isoprenaline-induced β-stimulation” value [1] was “the efficacy of simvastatin is better than those of the other statins”.
For `CC[C@H](C)C(=O)O[C@H]1C[C@@H](C)C=C2C=C[C@H](C)[C@H](CC[C@@H]3C[C@@H](O)CC(=O)O3)[C@H]21` [lovastatin], the “cardiac contraction and positive inotropic response to isoprenaline-induced β-stimulation” value [1] was “the efficacy of simvastatin is better than those of the other statins”.
In the case of `Cc1cc(C)c(CNC(=O)c2cc(-c3ccc(N4CCN(C)CC4)nc3)cc3c2c(C)cn3C(C)C)c(=O)[nH]1` [GSK503], the “OCR and ECAR of LVNC cardiomyocytes (mitochondrial function)” value [2] is reported as “does not significantly improve OCR or ECAR” and the “OCR and ECAR of LVNC cardiomyocytes (mitochondrial function)” value ([2]; listed as gsk) is reported as “did not change cardiac mitochondrial dysfunction”.
With `O=C(CCCCCCC(=O)Nc1ccccc1)NO` [SAHA] the “cardiac contraction and positive inotropic response to isoprenaline-induced β-stimulation” value [1] was “unable to improve LVNC cardiac functions”.
In the case of `CCC(C)(C)C(=O)O[C@H]1C[C@@H](C)C=C2C=C[C@H](C)[C@H](CC[C@@H]3C[C@@H](O)CC(=O)O3)[C@H]21` [simvastatin], the “number of proteins highly expressed in both healthy/iH,ctrl and iH,s/iH,ctrl” value ([3]; iH LVNC cardiomyocytes, FIG. 4C) is reported as 69 proteins, the “number of proteins significantly upregulated in both iF,s/iF,ctrl and iH,s/iH,ctrl” value ([3]; two LVNC patients (iFa & iH), FIG. 4D) is reported as 27 proteins and the “slope of linear regression of LVEF % vs. day” value ([4]; S(d1-84): treated initial 84 days, then 42 days drug holiday, P=0.1326, R square=0.3352, not significantly deviated from zero) is reported as 0.05031. The “slope of linear regression of LVEF % vs. day” value ([4]; S(d1-126): continuous treatment 126 days, 3.5 mg/kg/day osmotic pump, P=0.0297, R square=0.6445, significantly deviated from zero) was 0.1098.
